This is an account of results in a melting point compilation (Tetko et al.; mined from patent text by program, amines drawn as free bases though some values may be those of a salt).

As usually defined, the melting point is the temperature, or range, at which the solid turns liquid. In turn, `O=[N+]([O-])c1ccccc1OCc1ccccc1` had a melting point of under 50 °C.
To `N=C(N)Nc1ccc(CCC(=O)O)cc1` belongs over 300 °C; to `CC(=O)Oc1cnccc1CCCOc1cccnc1Oc1ccccc1`, 79 to 80 °C; to `O=C(O)Cc1ccc(C2CC(=O)c3ccccc32)cc1` (stereo not drawn), 151 °C.
Regarding `COCCNC(=O)c1c(O)c2ccccc2n(C)c1=N`, the melting point was 208 to 210 °C.
`CC(c1oc2ccccc2c(=O)c1-c1cccc(F)c1)n1nc(-c2ccco2)c2c(N)ncnc21` (stereo not drawn) returned a melting point of 234 to 236 °C.
Regarding `C=C(F)C[C@@H](C(=O)O)N(Cc1cccnc1)S(=O)(=O)c1ccc(OC)cc1`, the melting point amounted to 172 °C.
To `C=CCSc1sc(-c2cc[nH]n2)c2c1C(=O)CC(C)(C)C2` belongs 164 to 167 °C; to `COc1ccc(-c2ccc3c(c2)c2c(C=Cc4ccccc4)ccnc2n3S(=O)(=O)c2ccccc2)cc1`, 190 to 192 °C; to `COc1ccnc(C(=O)NCCNC(=O)OC(C)(C)C)c1`, 106 to 107 °C.
Take `O=C(O)CCCOc1cc(Cn2cc(C3c4ccccc4C=Cc4ccccc43)c(=S)[nH]c2=O)cc(OCC(=O)O)c1`: the melting point lay in the range of 104 to 109 °C.
The value for `CC1CC(=O)C(C(=O)CCC2CCCO2)C(=O)O1` (stereo not drawn) was 43 to 45 °C; that for `COc1ccc(-c2sc3c(c2C)c(=O)c(COC(C)=O)cn3Cc2ccccc2OC)cc1` was 158 to 159 °C.
The value for `CC(c1ccc(C(F)(F)F)cc1[N+](=O)[O-])[N+](=O)[O-]` (stereo not drawn) was 48 °C; that for `CN(C)C=Nc1[nH]nc(N2CCOCC2)c1C#N` was 182 to 183 °C; that for `Cc1nc(N2CCC[C@H]2CO)c2nc(-c3ccccc3)cc-2[nH]1` was 255 to 256 °C.
Molecule `CC(C)CC(=O)Nc1cccc(-c2ccnc3c(-c4cccc(Cl)c4Cl)cnn23)c1` gave a melting point of 154 to 156 °C.
To `NC(Cc1cccc(C(F)(F)F)c1)=NO` belongs 91 to 92 °C.
To `Sc1ccc(OCc2ccccc2)nn1` belongs 155 to 157 °C; to `CC1CCN(c2cc(-c3ncccn3)nc(Cl)c2-c2c(F)cccc2Cl)CC1`, 129 °C.
The value for `CN1CCN(c2c(F)cc3c(=O)c(C(=O)O)cn(C4COC4)c3c2Cl)CC1` was 211 to 212 °C; that for `CCOC(=O)CNC(=O)[C@H](Cc1ccc(O)cc1)NC(=O)[C@H](CO)NC(=O)OCc1ccccc1` was 166 to 169 °C.
On to `COc1ccc(C2COc3c(ccc(O)c3C)C2O)cc1` (stereo not drawn), for which the melting point stood at 162 °C.
`COC(=O)C(C)(C)c1ccc(OCCN)cc1` yielded a melting point of 108 to 112 °C.
For the molecule `COc1ccc2occ(N)c(=O)c2c1`, the melting point fell in the range of 98 to 100 °C.
In turn, `CCOC(=O)c1c(C)cc2nc(C(C)C)n(-c3ccccc3Cl)c(=O)c2c1C` returned a melting point of 115 to 116 °C.
Take `COC(=O)c1ccc2cccc3c2c1-c1ccccc1-3`: the melting point was 70 to 71 °C.
To `CCCOC(=O)Oc1ccc(-c2nc3c(N)nc(N)nc3nc2N)cc1` belongs 302 to 308 °C.
In turn, `Cc1nc(N2CCN(Cc3ccc(C(F)(F)F)cc3)C2=O)sc1C(=O)O` came in with a melting point of 195 to 197 °C.
The value for `C[C@@H](S[C@H]1CO[C@H](c2ccc(C(=O)Nc3ccncc3)cc2)OC1)[C@](O)(Cn1cncn1)c1ccc(F)cc1F` was 133 °C.
To `Cc1nc(NCc2ccccc2)sc1-c1ccnc(Nc2ccc(N3CCOCC3)cc2)n1` belongs 180 to 183 °C.
To `COc1ccc(C=CC(=O)N2CCc3c([nH]c4ccccc34)C2c2ccc3c(c2)OCO3)cc1O` (stereo not drawn) belongs 213 °C.
As for `Brc1ccc(C2=CCCC2)cc1`, the melting point lay in the range of 94 to 95 °C.
The value for `Cn1ncc(/C=C/C(=O)Nc2ccc3c(c2)oc(=O)n3C)c1-c1ccc(F)cc1` was 265 to 266 °C; that for `O=C1NCCN1OCc1ccccc1` was 64 to 65 °C.
`Cc1c(C)c2c(c(C)c1NC(=O)CC(C)(C)C)[C@@H](c1ccc(C(C)C)cc1)[C@H](C)O2` (relative stereo) registered a melting point of 143 to 144 °C.
Consider `O=C(O)C1=Cc2cc(Cl)cc(Cl)c2NC1C(F)(F)F` (stereo not drawn), for which the melting point is 223 to 226 °C.
To `Cc1ccc(C)n1-c1cccc(C(=O)O)c1` belongs 148 to 150 °C; to `COc1ccc(CC(C)NCC(O)c2ccccc2OC)cc1OC` (stereo not drawn), 125 to 126 °C.
To `Cc1ccc(C(Cl)=NO)cc1` belongs 69 to 71 °C; to `O=C(Oc1ccc(F)cc1)N1CCN2C(=O)OC(c3ccccc3)(c3ccccc3)C2C1` (stereo not drawn), 188 to 189 °C.
On to `COc1ccc(C(O)(c2ccc(OC)cc2)C(O)(c2ccccc2)c2ccccc2)cc1`, for which the melting point lay within 163 to 165 °C.
The value for `C#CCC#CCON1C(=O)c2ccccc2C1=O` was 134 to 135 °C.
On to `CC(=O)Nc1cc(-c2ccc(S(C)(=O)=O)cc2)c(-c2ccc(F)cc2)s1`, for which the melting point was 80 to 92 °C.
`NC(=O)CCn1nccc1-c1ccc(Oc2ccc(F)cc2)cc1` registered a melting point of 118 to 120 °C.
To `Clc1ccc(CSc2nnc(-c3ccc4occc4c3)o2)cc1` belongs 162 to 163 °C.
Molecule `Cc1ccc(C(=O)Nc2ccc(N3CCNCC3)cc2)c(-c2ccc(C(C)C)cc2)c1` displayed a melting point of 131 to 133 °C.
To `CS(=O)(=O)Nc1cc2occ(N(C=O)CC(=O)O)c(=O)c2cc1Oc1ccccc1` belongs 98 to 100 °C; to `COC1(c2cc(Sc3ccc(/C(C)=N/O)cc3)nc(N)n2)CCOCC1`, 237 to 240 °C; to `CC(=O)NC(C(=O)OCc1cc(C)cc(C)c1)C1c2ccccc2-c2ccccc21` (stereo not drawn), 162 to 164 °C.
As to `CC1Cc2cc(N3C[C@H](CO)OC3=O)ccc2N1C(=O)OCc1ccccc1` (stereo partly drawn), the melting point lay within 144 to 145 °C.
To `O=C1CCn2c3c(c4cccc1c42)CCN(C(=O)c1ccccc1)CC3` belongs 178 to 181 °C.
In the case of `Cc1nccn1-c1nc(-c2ccc(Cl)cc2)c(CCC(=O)NCCCl)o1`, the melting point was 155 to 156 °C.
To `C=CCc1ccc(C2=NNC(=O)CC2)cc1O` belongs 175 to 178 °C; to `Cn1cc(-c2cc3cccnc3[nH]2)c2cc(C(=O)NC(C)(CO)CO)ccc21`, 180 to 182 °C.
The value for `O=C(O)C(=O)CC(=O)c1ccnn1Cc1ccc(F)cc1` was 157 to 159 °C.
`CCOC(=O)Nc1cc(Oc2ncccn2)c(Br)cc1F` yielded a melting point of 178 °C.
The molecule `CCNc1nc(C)c(-c2ccnc(Nc3ccc(N4CCOCC4)c(Cl)c3)n2)s1` had a melting point of 273 to 274 °C.
Regarding `CCNC(=O)n1nc(Oc2c(F)cc(C(F)(F)F)cc2Cl)cc1C`, the melting point lay within 58 to 60 °C.
The value for `Clc1ccc(-c2cc(Cl)n3nccc3n2)cc1` was 133 to 135 °C; that for `COc1cc(F)ccc1-c1cncc(OC2SCC(O)C(O)C2O)c1` (stereo not drawn) was 218 to 228 °C.
The value for `O=C(NCC(O)CO)c1cc2c(Oc3ccc(Cl)cc3)cncc2s1` (stereo not drawn) was 106 to 115 °C.
`CC(=O)C1C(=O)c2cccc(N)c2C1=O` (stereo not drawn) came in with a melting point of 126 to 128 °C.
The value for `NC(=O)N(O)CC(=O)Nc1ccc(Oc2ccccc2)cc1` was 190 °C; that for `CN(C)[C@@H]1c2ccccc2N(C(=O)c2ccc(NC(=O)c3ccccc3Cl)cc2)CC[C@H]1O` (relative stereo) was 180 to 182 °C.
To `CCOCc1nc2c(N)nc3ccccc3c2n1NCCCNC(=O)Nc1ccccc1` belongs 177 to 179 °C; to `C=CC(C)=CC(=CC)NCc1ccc2nc(NC3CCN(C)CC3)n(Cc3nc(C)ccc3O)c2c1`, 141 °C; to `COc1ccc(-c2cc(C(=O)O)c(=O)n(CC3CC3)n2)cc1F`, 169 to 171 °C.
The value for `CCCCCCCCCCC#CC#CCCCCCCCCC(=O)OC(=O)CCCCCCCCC#CC#CCCCCCCCCCC` was 58 to 59.5 °C; that for `COC(=O)C1CCC2C3CCC4CC(O)CCC4(C)C3C(NC3CCCC3)CC12C` (stereo not drawn) was 143 to 145 °C.
In the case of `O=S(Cc1cn(C23CC4CC(CC(C4)C2)C3)nn1)c1cc(Cl)ccc1Cl` (stereo not drawn), the melting point lay within 125 to 128 °C.
To `COc1ccc2c(CO)c(F)ccc2c1C(F)(F)F` belongs 113 to 114 °C; to `COc1cc(CC(=O)O)ccc1OCCc1ccccc1`, 97 to 100 °C.
Consider `CCOC(=O)CCCCn1c(C)cn(N=Cc2cccnc2)c1=O`, for which the melting point lay within 74 to 76 °C.
The value for `O=C(N[C@H]1CCCNC1=O)c1cc(F)cc(F)c1` was 198 to 199 °C; that for `COc1ccc(N2CCN(c3nc(NC(C)(C)C(C)(C)C)nc(NC(C)(C)C(C)(C)C)n3)CC2)cc1` was 155 to 157 °C.
For the molecule `CCOC(=O)C1C(=O)NC(=O)C(C#N)C12CCCCC2` (stereo not drawn), the melting point is 167 to 170 °C.
Molecule `Cc1ccc(C2C3=C(CC(C)(C)CC3=O)NC3=C2C(=O)CC(C)(C)C3)cc1C` showed a melting point of over 300 °C.
`COc1cccc(CNC(=O)c2c(-c3ccc(F)cc3)c(-c3ccc(F)cc3)c(C=O)n2C(C)C)c1` showed a melting point of 167 to 168 °C.
Molecule `CN1CCN(CCCc2cc3ccccc3c(=O)[nH]2)CC1` yielded a melting point of 120 to 122 °C.
To `COc1ccc(N=Nc2ccc(O)c(C(=O)Nc3ccc4[nH]cnc4c3)c2)cc1` belongs 274 °C.
Molecule `COc1ccc(-c2coc3ccc(-c4nnc(SCc5ccc(OC)c(C(F)(F)F)c5)o4)cc23)cc1` displayed a melting point of 162 to 163 °C.
To `CCOc1cc2c(cc1OC)C(c1ccc(C(=O)N(C(C)C)[C@@H](C)CO)cc1)=N[C@@H]1CCN(C)C[C@H]21` belongs 104 to 112 °C.
Molecule `COC(=O)c1nc(CI)n(-c2ccc(Cl)cc2C(=O)c2ccccc2Cl)n1` came in with a melting point of 125 to 128 °C.
To `CCOc1ccc2c(C)c(CCO)c(=O)oc2c1OCC` belongs 130 to 131 °C; to `Cc1cc(SCN2C(=O)c3ccccc3C2=O)cc(C(C)(C)C)c1O`, 114 to 116 °C.
Regarding `COc1cc(Nc2c(C#N)cnc3cc(-c4cc5ccccc5s4)ccc23)c(Cl)cc1Cl`, the melting point fell in the range of 269 to 270 °C.
The value for `O=C(O)C1CC(O)CN1C(=O)c1ccc2c(c1)OCO2` (stereo not drawn) was 230 °C.
